Laboratory results from patent publication EP0207599A1, “Arachidonic acid analogues” (BEECHAM GROUP PLC, priority 1985, dated 1987).

System: Phospholipase A2 (Naja naja venom , Sigma)
Experiment: Inhibition of phospholipase A2 activity (release of 14C-arachidonic acid from phosphatidylcholine substrate)
Type: biochemical
Conditions: at 20µM; mean ± standard deviation of triplicate samples; 37°C, pH 8.7, CaCl2 4mM
Protocol: Method For The Measurement of Inhibition of Phospholipase A2 Activity
Enzyme: Phospholipase A2 (Naja naja venom , Sigma)
Substrate: Diarachidoyl phosphatidylcholine (10.6mg) and α-1-palmitayl-2-[1-^14C]-arachidonyl phosphatidylcholine (0.5pCi; 52.9nCi/mMol) in 28ml of TrisHCl buffer = […], pH 8.7) ultrasonicated.
Assay: Incubations containing PLA2 (0.125ng) in Tris HC1 buffer (100mM, pH 8.7) and CaCl2 (4mM) were prepared on ice. Immediately prior to incubation at 37°C 5µl of DMSO or compound in DMSO were added. The final assay volume was 1.75ml. After 10 minutes incubation at 37°C 750pl of substrate was added, with mixing, and the incubation continued for a further 15 min. The reaction is terminated by placing on ice and adding 5m1 CHCl3:MeOH (2:1v/v).
The lower organic phase is remaved ahd stored under N2 at -20°C until analysed. Analysis is by 1-dimensional t.l.c. on polygram Sil G sheets in the solvent system: petroleum ether: diethyl ether: acetic acid (60:40:1, v/v). In this solvent system the phospholipid remains at the origin and the arachidonic acid has an approximate Rf. value of 0.36. The areas of interest are cut from the plates and their radioactivity determined by liquid scintillation counting.
All compounds are tested in triplicate.
Calculation: The radioactivity of the arachidonic acid is expressed as a percentage of the total dpm cut from the plate. The percentage inhibition of arachidonic acid release compared to that of the control is calculated after correction for the level of spontaneous release where: • x = % corrected mean arachidonic acid release in control • y = % corrected arachidonic acid release after inhibition [formula]
The nean of the triplicate sanples is calculated giving z ± standard deviation %.

Compound | Percent inhibition of phospholipase A2 at x µM concentration. [at 20µM %]
CCCCCCC#Cc1cccc(/C=C/CCCC(=O)O)c1 [Example 5, 6-[3-(1-Octynyl)phenyl]-E-hex-5-en-1-oic acid] | 78.9± 4.7
CCCCCCC#Cc1ccccc1C#CCCC(C(=O)O)C(=O)O [Example 13, 2-(4-[2-(1-octynyl)phenyl]-but-3-ynyl)malonic acid.] | 23.1± 17.6
CCCCCC/C=C\c1ccccc1/C=C/CCCC(=O)O [Example 3, 6-[2-(Z-1-Octenyl)phenyl]-E-hex-5-en-1-oic acid] | 72.9± 10.3
CCCCCC/C=C\c1ccccc1/C=C\CCCC(=O)O [Example 25, 6-[2-((Z)-1-octenyl)phenyl]-(Z)-hex-5-en-1-oic acid] | 69.8± 8.3
6-[2-(1-Octynyl)phenyl)hex-5-yn-1-oic acid [Example 23] | 25.0± 19.0
CCCCCC/C=C\c1ccccc1/C=C\CCC(C(=O)O)C(=O)O [Example 15, 2-(4-[2-(Z)-1-Octenyl)phenyl-(Z)-but-3-enyl)malonic acid] | 65.0± 17.0
6-(2-(1-Octynyl)pheny]-E-hex-5-en-1-oic acid [Example 2] | 76.2± 13.9
CCCCCCC#Cc1ccccc1C#CCCC(C(=O)O)C(=O)OC(C)(C)C (centres unmarked) [Example 21, 2-(4-[2-(1-Octynyl)phenyl]-but-3-ynyl)malonic acid monotertbutyl ester] | 62.0± 4.4
